SMILES strings stand for the structures. Converted amounts (≈) assume the structure as drawn. A value given as a limit tells only on which side of the number the result lay.

The subject of experiment [1] is E. coli isolate 2 (CTX-M-2). Nature of the experiment: Cross-resistance MIC assay, clinical isolate. Further details: unit not given beside the values. It is filed as cell-based. The note with it: E. coli isolate 2, CTX-M-2, resistance ESBL; protocol as section 5 (CAMHB; there µg mL-1); unit not given in Table S5. The procedure:
(§1) 5. Determination of the minimal inhibitory concentration (MIC) in vitro The MIC of Corramycin was evaluated following the Clinical & Laboratory Standard Institute (CLSI; https://clsi.org) and EUCAST (https://eucast.org) guidelines. First, inoculi of the bacterial test strains were prepared by culturing isolated colonies in cation-adjusted Müller Hinton broth (CAMHB; 2 g L-1 beef infusion solids, 1.5 g L-1 starch, 17.5 g L-1 casein hydrolysates, final pH 7.4) at 37 °C and 180 rpm for 18 h. Next, Corramycin, which was dissolved in DMSO, was transferred into the first row of a 96-well plate to reach an end concentration of 64 µg mL-1 (in 100 µL total volume). A 1:1 serial dilution in cation-adjusted Mueller Hinton broth (CAMHB) of the test compound was done from the top row to the bottom […]
(§2) the respective test strains were transferred into the wells, reaching a total volume of 100 µL and 5x10^5 colony-forming units (CFU) mL-1. After a 20 to 22 h of incubation, the optical density was evaluated on a microplate reader and the MIC endpoint was determined as the lowest concentration of antibiotic at which there was no visible growth observed. Each MIC experiment was performed in duplicates. Table […]
(§3) (1 picture or pasted object on this page, not shown here)
(§4) 6. Investigation of the cross-resistance of Corramycin to clinically used antibiotics […]
(§5) of the MIC according to the protocol described in the previous section. The MIC of the respective antibiotics against 16 clinical isolate E. coli strains, which were obtained from P. Nordmann’s collection and were classified Carbapenem-resistant, Aminoglycoside-resistant or Quinolone-resistant, was […]
(§6) extended-spectrum β-lactamase; CP: carbapenem; AG: aminoglycoside; QL: quinolone; PRP

Experiment [2] deals with E. coli isolate 3 (OXA-30). The experiment is described as follows: Cross-resistance MIC assay, clinical isolate. In kind it is cell-based. Further details: unit not given beside the values. The note with it: E. coli isolate 3, OXA-30, resistance ESBL-CP; protocol as section 5 (CAMHB; there µg mL-1); unit not given in Table S5. On the procedure: as §1, §2, §3, §4, §5, §6

Experiment [3] deals with E. coli isolate 5 (TEM-3). In kind it is cell-based. Further details: unit not given beside the values. The note with it: E. coli isolate 5, TEM-3, resistance ESBL; protocol as section 5 (CAMHB; there µg mL-1); unit not given in Table S5. On the procedure: as §1, §2, §3, §4, §5, §6
Experiment [4] concerns E. coli isolate 10 (OXA-48+CTX-M-15). Nature of the experiment: Cross-resistance MIC assay, clinical isolate. It is filed as cell-based. As to conditions: E. coli isolate 10, OXA-48+CTX-M-15, resistance ESBL-CP; protocol as section 5 (CAMHB; there µg mL-1); unit not given in Table S5. On the procedure: as §1, §2, §3, §4, §5, §6
Experiment [5] relates to E. coli isolate 11 (RMT-B). Nature of the experiment: Cross-resistance MIC assay, clinical isolate. In kind it is cell-based. The note with it: resistance AG, protocol as section 5 (CAMHB; there µg mL-1), unit not given in Table S5. On the procedure:
as §1, §2, §3, §4, §5, §6

The test system of experiment [6] is E. coli isolate 6 (IMP-1). The experiment is described as follows: Cross-resistance MIC assay, clinical isolate. As to conditions: E. coli isolate 6, IMP-1, resistance ESBL-CP; protocol as section 5 (CAMHB; there µg mL-1); unit not given in Table S5. It is filed as cell-based. On the procedure:
as §1, §2, §3, §4, §5, §6

Experiment [7] has as its system E. coli isolate 7 (IMP-4). The experiment is described as follows: Cross-resistance MIC assay, clinical isolate. In kind it is cell-based. The note with it: E. coli isolate 7, IMP-4, resistance ESBL-CP; protocol as section 5 (CAMHB; there µg mL-1); unit not given in Table S5. The procedure:
as §1, §2, §3, §4, §5, §6

Experiment [8] concerns E. coli isolate 1 (CTX-M-1). The experiment is described as follows: Cross-resistance MIC assay, clinical isolate. Details: unit not given beside the values. The note with it: E. coli isolate 1, CTX-M-1, resistance ESBL; protocol as section 5 (CAMHB; there µg mL-1); unit not given in Table S5.
The test system of experiment [9] is E. coli isolate 4 (SHV-2a). The experiment is described as follows: Cross-resistance MIC assay, clinical isolate. Further details: unit not given beside the values. The note with it: resistance ESBL, protocol as section 5 (CAMHB; there µg mL-1), unit not given in Table S5.
Experiment [10] concerns E. coli isolate 8 (KPC-2+TEM-1+OXA-9). The experiment is described as follows: Cross-resistance MIC assay, clinical isolate. Details: unit not given beside the values. As to conditions: E. coli isolate 8, KPC-2+TEM-1+OXA-9, resistance ESBL-CP; protocol as section 5 (CAMHB; there µg mL-1); unit not given in Table S5.
Experiment [11] concerns E. coli isolate 9 (OXA-48). Nature of the experiment: Cross-resistance MIC assay, clinical isolate. As to conditions: E. coli isolate 9, OXA-48, resistance ESBL-CP; protocol as section 5 (CAMHB; there µg mL-1); unit not given in Table S5. Details: unit not given beside the values.
The subject of experiment [12] is E. coli isolate 12 (ARM-A). The experiment is described as follows: Cross-resistance MIC assay, clinical isolate. Further details: unit not given beside the values. As to conditions: resistance AG, protocol as section 5 (CAMHB; there µg mL-1), unit not given in Table S5.
For experiment [13], the system named is E. coli isolate 13 (RMT-C). Nature of the experiment: Cross-resistance MIC assay, clinical isolate. Details: unit not given beside the values. The note with it: resistance AG, protocol as section 5 (CAMHB; there µg mL-1), unit not given in Table S5.
The test system of experiment [14] is E. coli isolate 14 (qepA). Nature of the experiment: Cross-resistance MIC assay, clinical isolate. Details: unit not given beside the values. The note with it: resistance QL, protocol as section 5 (CAMHB; there µg mL-1), unit not given in Table S5.
Experiment [15] deals with E. coli isolate 15 (qnrA1). Nature of the experiment: Cross-resistance MIC assay, clinical isolate. Further details: unit not given beside the values. The note with it: E. coli isolate 15, qnrA1, resistance QL; protocol as section 5 (CAMHB; there µg mL-1); unit not given in Table S5.
In experiment [16] the test system is E. coli isolate 16 (QnrS1). The experiment is described as follows: Cross-resistance MIC assay, clinical isolate. Details: unit not given beside the values. As to conditions: E. coli isolate 16, QnrS1, resistance QL; protocol as section 5 (CAMHB; there µg mL-1); unit not given in Table S5.

On to `CO/N=C(\C(=O)N[C@@H]1C(=O)N2C(C(=O)O)=C(COC(C)=O)CS[C@H]12)c1csc(N)n1` [Cefotaxim], for which the MIC was 64 in experiment [1]; 1 in [2]; 64 in experiment [3]; greater than 64 µg/mL in experiment [4]; greater than 64 µg/mL in [5]; 0.25 µg/mL (≈ 0.549 µM) in experiment [6]. Besides, the MIC was greater than 64 µg/mL in experiment [7]; greater than 64 in [8]; 64 in experiment [9]; greater than 64 in experiment [10]; greater than 64 in experiment [11]; greater than 64 in experiment [12]. In addition, the MIC in [13] is greater than 64; in [14] it was greater than 64; in experiment [15], 32; in [16], greater than 64.
`CO[C@@]1(NC(=O)Cc2cccs2)C(=O)N2C(C(=O)O)=C(COC(N)=O)CS[C@@H]21` [Cefoxitin]: the MIC in experiment [1] stood at 4; in experiment [2], 4; in [3] it was 4; in experiment [4], 16 µg/mL (≈ 37.4 µM); in experiment [5], 16 µg/mL (≈ 37.4 µM); in experiment [6], 16 µg/mL (≈ 37.4 µM). The MIC in [7] was greater than 64 µg/mL; in [8] it was 8; in experiment [9] it was 4; in experiment [10], 64; in experiment [11] it was 16; in [12], 8. In addition, the MIC in experiment [13] was greater than 64; in experiment [14] it was 8; in [15], 8; in experiment [16] it was 8.
On to `CO[C@H]1/C=C/O[C@@]2(C)Oc3c(C)c(O)c4c(O)c(c(/C=N/N5CCN(C)CC5)c(O)c4c3C2=O)NC(=O)/C(C)=C\C=C\[C@H](C)[C@H](O)[C@@H](C)[C@@H](O)[C@@H](C)[C@H](OC(C)=O)[C@@H]1C` [Rifampicin], for which the MIC amounted to 16 in [3]; 16 µg/mL (≈ 19.4 µM) in experiment [4]; 16 µg/mL (≈ 19.4 µM) in [5]; 16 µg/mL (≈ 19.4 µM) in experiment [6]; 16 µg/mL (≈ 19.4 µM) in experiment [7]; 16 in experiment [9]. In addition, the figures for the MIC in experiment [11], in experiment [12] and in experiment [15] were 64, greater than 64 and greater than 64, respectively.
Turning to `CN(C)[C@@H]1C(O)=C(C(N)=O)C(=O)[C@@]2(O)C(O)=C3C(=O)c4c(O)cccc4[C@@](C)(O)[C@H]3C[C@@H]12` [Tetracyclin], the MIC in [1] is listed as 32; in [14], 4; in [15], 4.
As to `NC[C@H]1O[C@H](O[C@H]2[C@H](O)[C@@H](O[C@H]3O[C@H](CO)[C@@H](O)[C@H](N)[C@H]3O)[C@H](N)C[C@@H]2N)[C@H](N)C[C@@H]1O` [Tobramycin], the MIC was 2 in experiment [1]; 2 in experiment [2]; 16 in [3]; 1 µg/mL (≈ 2.14 µM) in experiment [4]; 1 µg/mL (≈ 2.14 µM) in experiment [5]; 2 µg/mL (≈ 4.28 µM) in experiment [6]. The MIC in experiment [7] was 16 µg/mL (≈ 34.2 µM); in [8], 2; in experiment [9], 32; in experiment [10], 8; in experiment [11] it was 32; in experiment [12], greater than 64. The MIC in experiment [13] was greater than 64; in [14], 0.5; in experiment [15], 32; in [16] it was 32.
